Measured values reported in a melting point compilation (Tetko et al.; mined from patent text by program, amines drawn as free bases though some values may be those of a salt).

| Structure (SMILES) | melting point [°C] |
| --- | --- |
| CSC(=CC(=O)C(F)(F)F)SC | 97 |
| O=C(O)C=Cc1ccc(Cn2ccnc2)c(Cl)c1 | 227 to 229 |
| O=C(NCc1ccc(Cl)cc1)c1cc2c3c(cc(CN4CCOCC4)cn3c1=O)CCC2 | 200 to 201 |
| CCOC(=O)c1c(Cn2cnnc2)nc2sc(C)c(C)c2c1-c1ccc(OC)c(OC)c1 | 187 to 188 |
| Cc1c(N2CCC(n3cccc3)CC2)c(F)cn2c(=O)c(C(=O)O)cc(C3CC3)c12 | 268 to 269 |
| Nc1ccc(-c2noc(-c3cnn4c(C(F)(F)F)cc(-c5ccc(F)c(F)c5)nc34)n2)cn1 | 262 |
| NS(=O)(=O)c1ccc(-c2cn(-c3nc(-c4ccc(C(F)(F)F)cc4)cc(C(F)(F)F)n3)cn2)cc1 | 292 |
| COCOCCCOn1cnc2cnc(N)nc21 | 80 to 81 |
| CC(=O)Nc1ccc(O[C@H](c2ccc([N+](=O)[O-])cc2)[C@@H](O)CO)cc1 | 110 to 111 |
| CC(=O)N1CCC(C(=O)c2ccc(Cl)c(Cl)c2)CC1 | 134 to 136 |
| COc1ccc(N2CCN(c3c(C)c(C)c4c(c3C)C(N3CCOCC3)C(C)(C)O4)CC2)cc1 (configuration not stated) | 181 to 182 |
| Clc1ccc2c(c1)C(c1ccccc1)=NCc1nnc(CNC3CC3)n1-2 | 164 to 169 |
| CC1CCN(c2occ(C(C)(C)C)c2C#N)C1=O (configuration not stated) | 88 to 90 |
| C[C@@]1(NC(=O)c2cc3cccc4c3n2CCC4)C(=O)N(c2ccccc2F)c2ccccc21 | 194 to 195 |
| CC(C)(C)OC(=O)Cc1n[nH]c2c(=O)[nH]c3cc(Cl)ccc3c(=O)c12 | 226 to 229 |
| Cc1[nH]c2ccccc2c1[C@H]1CC[C@@H](N2CCN(c3cccc4[nH]ccc34)CC2)CC1 | 279 to 280 |
| O=C(NCc1ccc(F)cc1)Nc1ccc(CN2C(=O)[C@H]3CCC[C@H]3N(C(=O)CCl)c3ccccc32)cc1 (relative stereo) | 202 to 203 |
| CCCCc1nc(SCCOC(C)=O)c(C(=O)OCC)[nH]1 | 68 |
| CC(Cc1c[nH]c2ccccc12)(NC(=O)OC1C2CC3CC(C2)CC1C3)C(=O)NC(CNC(=O)CCC(=O)O)Cc1ccccc1 (configuration not stated) | 110 to 114 |
| COCCc1nc2c(N)nc3cc(OCCn4cccc4)ccc3c2n1CC(C)(C)O | 168 to 169 |
| CC(CO)(Oc1ccc(C(=O)c2ccc(Cl)cc2)cc1)C(=O)O (configuration not stated) | 172 to 174 |
| Cc1ccc(N)c(C(=O)NCC(C)Cn2ccnc2)c1 (configuration not stated) | 120 to 122 |
| CCOC(=O)C1=C(N)NC(N)=C(C(=O)OCC)C1c1ccccc1C(F)(F)F | 191 |
| CC1COc2c(F)c(F)cc3c2N1C(=O)C3=O (configuration not stated) | 169 to 171 |
| c1ccc(-c2cc3c(N4CCOCC4)nnc(N4CCOCC4)c3cn2)cc1 | 186 to 188 |

| Structure (SMILES) | melting point [°C] |
| --- | --- |
| O=[N+]([O-])c1cccc2c1OCCO2 | 55 to 59 |
| Cc1nnc2c(-c3cccnc3)cccn12 | 112 to 115 |
| CCOC(=O)COc1cc2c(c(Cl)c1Cl)C(=O)C(c1ccccc1)C2 (configuration not stated) | 114 to 115 |
| O=C1N(Cc2ncccc2C(F)(F)F)c2ccccc2C12COc1c(Cl)cc3c(c12)OCCO3 (configuration not stated) | 273 to 275 |
| Fc1ccc2c(c1)nc(/C=C/c1ccccc1)n2-c1ccccn1 | 134 to 135 |
| CCOC(=O)c1cnc2c(F)c(F)ccc2c1Cl | 114 |
| CCCCCCCCCCCCCc1cc(C(=O)OCCBr)c[nH]1 | 67 to 69.5 |
| COC(=O)c1cc2cc(OCc3ccccc3)ccc2n1CC(=O)N(C)CCc1ccccc1 | 155 to 156 |
| O=C(Nc1ccc2[nH]cc(C3CCNCC3)c2c1)c1ccc(F)cc1 | 229 to 230 |
| NS(=O)(=O)c1ccc(-c2cc3c(cc2-c2ccc(F)cc2)OCO3)cc1 | 191 to 192 |
| O=Cc1ccc2c(ccc3ccccc32)c1 | 58 to 60 |
| CC(C)OC(=O)c1cc(NC(=O)c2c(Cl)c(Cl)c(Cl)c(Cl)c2C(=O)O)ccc1Cl | 178 to 179 |
| CC(C)c1ccc(-c2ccc(/C=C/C(=O)Nc3ccc(CN(C)C4CCOCC4)cc3)s2)cc1 | 187 to 189 |
| O=[N+]([O-])c1c(NCCCO)cc(Cl)cc1NCCCO | 127 |
| CCN(c1cc(C(=O)OC)c(O)c2ncc(Cc3ccc(F)cc3)cc12)S(C)(=O)=O | 149 to 150 |
| COc1ccc(S(=O)(=O)N2CCc3cccc(-c4ccc(CN(C)C)cc4)c32)cc1 | 165 to 166 |
| C=C1CCN([C@H](C)[C@](O)(Cn2cncn2)c2ccc(F)cc2F)CC1 | 86 to 87 |
| O=C(O)Cn1cc(Cc2nc3c(F)c(F)cc(F)c3s2)c2cc(-c3ccccc3)ccc21 | 156 to 159 |
| O=C(O)C1Cc2c(ncn2CCC2CCCCC2)CN1C(=O)C(c1ccccc1)c1ccccc1 (configuration not stated) | 137 to 140 |
| Cc1ccccc1-c1c(O)c2ccccc2[nH]c1=O | > 300 |
| Nc1cc(-n2cc(C(=O)O)c(=O)c3cc(F)c(Cl)nc32)c(F)cc1F | > 270 |
| CC(C)OCCNC(=O)c1n[nH]cc1NC(=O)c1ccccc1 | 121 to 122 |
| COC(=O)C(C)(C)Cc1cc2cc(OCc3ccc4ccccc4n3)ccc2[nH]1 | 131 to 132 |
| O=C1CN(C(=O)N2CCCC2)c2c(F)cccc2N1 | 126 to 132 |
| CC(C)(C)c1cc(CCc2ccccc2NC(=O)N2CCN(Cc3ccccc3)CC2)cc(C(C)(C)C)c1O | 70 to 72 |

| Structure (SMILES) | melting point [°C] |
| --- | --- |
| CC(=O)c1c(C)nc(C)c(C(=O)OCCC#N)c1-c1cccc([N+](=O)[O-])c1 | 85 |
| COC(=O)c1cc(OCCCCCCCCCCCCOc2ccccc2)ccc1O | 61 to 64 |
| CCOC(=O)c1ccc(CCNS(=O)(=O)c2ccc(Cl)cc2)cc1 | 88 |
| O=C(CNC(=O)c1ccccc1)NC1CCN(CCc2c[nH]c3ccccc23)CC1 | 236 to 240 |
| COC(=O)C=Cc1ccc2ccccc2n1 | 85 to 86 |
| O=[N+]([O-])c1cc(Br)ccc1Cl | 65 to 67 |
| CCC1(CCCCCBr)C(=O)Nc2ccc(C)cc21 (configuration not stated) | 72 to 73 |
| c1ccc(Sc2ccc(Sc3ccccc3)cc2)cc1 | 78 to 79 |
| C#Cc1cc(F)c(-n2c(=O)cc(C(F)(F)F)n(C)c2=O)cc1OCC | 140 |
| O=C1CCCCN1[C@@H]1c2cc(C(F)(F)F)ccc2OC(CF)(CF)[C@H]1O (relative stereo) | 184 to 187 |
| O=[N+]([O-])c1ccc(F)c(Br)c1O | 65 to 66 |
| CCCCC(CC)CNCCCCOc1ccc2ccccc2c1 (configuration not stated) | 94 |
| CCCCCCOc1ccc(C(=O)Nc2ccccc2Oc2cccc(OCc3nnn[nH]3)c2)cc1 | 158 to 159 |
| CN(C)Cc1c[nH]c2ccc(OCc3ccccc3)c(Cl)c12 | 137 to 139 |
| Brc1ccccc1SSc1ccccc1Br | 95 to 97 |
| Cn1cncc1C(N)(c1ccc(Cl)cc1)c1ccc2c(c1)c(-c1nc(-c3ccccc3)cs1)cc(=O)n2C (configuration not stated) | 237 |
| Cc1cc(C)c(C)c(COc2cccc(-c3ccoc3C(=O)NNC(=O)c3ccc(O)c([N+](=O)[O-])c3)c2)c1C | 140 to 142 |
| CCOC(=O)c1c(N2CCNCC2)c2cc(C)ccc2n(-c2ccccc2)c1=O | 181 |
| Cc1cccc(-c2[nH]c(C(C)C)nc2-c2cccc(-c3ccsc3)c2)n1 | 83 to 85 |
| c1ccc(N2C(=NCCCn3ccnc3)c3cccc4cccc2c34)cc1 | 103 to 105 |
| CC(=O)OCC1OC(n2cnc3c(N)nc(F)nc32)C(OC(C)=O)C1OC(C)=O (configuration not stated) | 195 to 196 |
| Cc1nc2c(C(=O)NC(C)(C(N)=O)C(C)C)cc(C(=O)O)cc2n1C (configuration not stated) | 246 to 248 |
| CC(c1cc(C(C)(C)C)c(O)c(C(C)(C)C)c1)N(O)C(N)=O (configuration not stated) | 162 to 164 |
| CNN1c2cc(Cl)cc(Cl)c2[C@@H](C(=O)Nc2ccccc2)C[C@@H]1C(=O)O (relative stereo) | 139 to 140 |
| CN(C)N1CSC(=CCc2cc(C(C)(C)C)c(O)c(C(C)(C)C)c2)C1=O | 181 to 186 |

| Structure (SMILES) | melting point [°C] |
| --- | --- |
| Cc1c(Cl)cccc1S(=O)(=O)Nc1ccc2nc(C)n(C)c2c1 | 265 to 266 |
| O=Cc1ccc(OC2OC(CO)C(O)C(O)C2O)cc1 (configuration not stated) | 177 |
| COc1ccccc1N1CCN(CCn2c(O)nc3sc4c(c3c2=O)CCN(C(C)=O)C4)CC1 | 135 to 137 |
| COc1ccc(Cc2ccc(CO)nc2)cc1 | 55 to 58 |
| COc1cccc2cc3c(c(-c4ccc5c(c4)OCO5)c12)C(=O)NC3=O | 291 to 293 |
| OC(CNc1ncnc2nc[nH]c12)CN1CCN(C(c2ccc(F)cc2)c2ccc(F)cc2)CC1 (configuration not stated) | 140 to 170 |
| C=C1C(O)C2(O)OCC34C(CC5C(C)=CC(=O)C(O)C5(C)C23)OC(=O)CC14 (configuration not stated) | 235 to 237 |
| O=C1CN=C(c2ccccc2)c2ccccc2N1CC(F)(F)F | 130 to 131 |
| CC(C)C(=O)N[C@@H]1CCc2c(c3cc(C#N)ccc3n2Cc2cccc(F)c2)C1 | 223 to 225 |
| COC1c2ccccc2C2C(=O)N(Cc3ccccc3)C(=O)C12 (configuration not stated) | 170 to 172 |
| O=C(O)/C=C/C=C(c1cccc([N+](=O)[O-])c1)c1cccc([N+](=O)[O-])c1 | 234 to 237 |
| CCOc1csc(NC(C)=O)c1C#N | 242 to 243 |
| COC(=O)c1cc(-c2nnn(Cc3ccc(OC)cc3)n2)ccc1OC | 110 to 111 |
| CCOC(=O)CNC(=O)Nc1ccc2oc3c(OC)ccc(C(=O)Nc4c(Cl)cncc4Cl)c3c2c1 | > 250 |
| Cn1nc(-c2nc(-n3cccc3)c(N)nc2-c2ccccc2)ccc1=O | 202 to 205 |
| C=CCN1CCN(c2cc(-c3ccccc3)c3ccc(=O)ccn23)CC1 | 125 |
| O=c1[nH]c2ccc(Br)cc2c(-c2ccccc2)[n+]1[O-] | 275 to 276 |
| O=S1(=O)N=C(NC2CCCC2)Nc2cc(Cl)sc21 | 291 to 292 |
| O=C(O)CNC(=O)COc1nc(F)c(Cl)cc1Cl | 155 to 157 |
| CCC(OC(=O)C1CC1)c1ccc(Cl)c2nc3n(c12)CCCN3c1ccc(OC)cc1Cl (configuration not stated) | 130 to 132 |
| COC(=O)CCCSc1c(Cc2cccc3ccccc23)sc2c1c(=O)n(C)c(=O)n2CC(C)C | 111 to 112 |
| Fc1ccc(-c2csc(NN=Cc3cn(Cc4ccc(Cl)cc4Cl)c4ccccc34)n2)cc1 | 198 |
